pEC50: −log10 of the molar value. Values after ≈ are worked out from the molar mass of the structure shown. Structures can show the parent of a compound that is named as a salt. Where two headings read alike, the source gives them in different places.
What was measured:
[1] = Lipid solubility: octanol / pH 7.4 phosphate buffer partition coefficient; assay type: physicochemical; conditions: n-octanol / pH 7.4 isotonic phosphate buffer, read-out: log D (pH 7.4)
Method: An equi-volume mixture of n-octanol (hereinafter referred to as octanol) and pH 7.4 isotonic phosphate buffer (hereinafter referred to as aqueous phase) was shaken in a suitable vessel, then statically left for 24 hours or more, and the upper layer (water-saturated octanol) and the lower layer (octanol-saturated water) were separately collected.
1 mg of a test compound was put into a test tube, and 5 ml of the water-saturated octanol was added thereto, ultrasonicated for 10 minutes and then stirred for about 30 seconds. In case where an insoluble substance was seen, then the liquid was filtered through a 0.45-μm membrane filter. 2 mL of the water-saturated octanol solution of the test compound was taken into a test tube, 2 mL of the octanol-saturated water was added thereto and shaken for 30 minutes. Then, this was centrifuged to separate into an upper layer (octanol phase) and a lower layer (aqueous phase), which were then separately collected.
The octanol phase and the aqueous phase were suitably diluted with DMSO, and the concentration of the test compound therein was determined through UV-detection HPLC or MS-detection HPLC.
From the concentration measured in each phase and the dilution ratio of each phase, the partition coefficient was derived through computation.
In case where the solubility in water of the test compound is estimated to be high, then the test compound is dissolved in the octanol-saturated water and then the water-saturated octanol is added thereto, shaken and centrifuged, and the upper layer (octanol phase) and the lower layer (aqueous phase) are separately collected to determine the concentration of the test compound.
The details of the HPLC apparatus and its operation condition are as follows: […]

hPPARα = target: T1, hPPARα (Homo sapiens, UniProt Q07869); assay: GAL4-hPPAR transactivation assay (PPARα); assay type: cell-based; conditions: HEK293T cells, pFA-hPPARα/GAL4 + pFR-SEAP reporter, about 48 hours
T1 construct: expressed in transfected cells; host or cells: HEK293T
T1 sequence (Q07869 239-466 limits assumed): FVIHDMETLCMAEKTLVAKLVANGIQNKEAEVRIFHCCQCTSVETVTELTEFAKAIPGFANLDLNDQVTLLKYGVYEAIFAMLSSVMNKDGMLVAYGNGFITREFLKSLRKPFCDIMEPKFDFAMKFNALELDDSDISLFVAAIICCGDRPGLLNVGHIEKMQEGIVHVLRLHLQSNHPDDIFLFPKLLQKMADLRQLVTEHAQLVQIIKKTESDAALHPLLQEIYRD
Text: (§1) GAL4-hPPAR Transactivation Assay
(§2) Plasmids for the expression of fusion protein for GAL4 DNA binding region-PPAR ligand binding region, pFA-hPPARα/GAL4 and pFA-hPPARγ/GAL4, were constructed by inserting the LBD cDNA of hPPARα and hPPARγ, respectively, into a commercially-available expression vector (pFA trans-activator plasmid, by STRATAGENE) having a GAL4 DNA binding region (GAL4 DBD) of yeast, under CMV promoter. For the expression of a reporter protein, used were a commercially-available plasmid (pFR-SEAP, by STRATAGENE) having a GAL4 responsive region (GAL4 UAS) in the upstream of cDNA of a secreted alkaline phosphatase (SEAP).
(§3) (b) Cell Culture and Transactivation Assay:
(§4) HEK293T cells were suspended in a high-glucose Dulbecco's modified Eagle's medium (DMEM) containing 10% fetal calf serum (by Hyclone), 100 U/mL penicillin G and […], and seeded in a 24-well cell culture plate in a density of 8×10^4 cells/well. The cells were cultured in a humidified atmosphere of 5% CO2 at 37° C. for 24 hours, and then subjected to transfection using Lipofectamine (by Invitrogen) and Plus reagent (by Invirogen) according to the manufacture's instruction in the absence of serum. Concretely, the cells were incubated in 225 μL of a transfection medium (OPTI-MEM, by Invitrogen) containing 0.48 μL of Lipofectamine, 0.030 μg of pFA-PPAR/GAL4 expression plasmid and 0.13 μg of pFR-SEAP, in a 5% CO2 atmosphere at 37° C. for 5 hours. Next, the same volume of a fresh high-glucose DMEM containing 10% fetal calf serum, 100 U/mL penicillin G, […] streptomycin sulfate and a test compound of two times the designated concentration was added to it, and the cells were incubated for about 48 hours. After the compound was solubilized in DMSO, control cells were incubated along with an equivalent concentration of DMSO. […] After the incubation, the culture supernatant was collected, and using a kit (reporter assay kit—SEAP, by TOYOBO), the SEAP activity was determined according to the manufacturer's instruction. Concretely, the same amount of an intrinsic alkaline phosphatase inhibitor was added to 5 μL of the culture supernatant and incubated at 37° C. for 30 minutes, and then 100 μL of a chemoluminescent substrate (Lumiphos PLUS, by Lumigen) was added thereto and incubated at 37° C. for 15 minutes, and thereafter the luminescence level was determined using a multi-label counter (ARVOsx, by Perkin Elmer). The values obtained as a result of the above operation and the concentrations of the test compound were plotted to obtain the EC50 value.

hPPARγ = target: T2, hPPARγ (Homo sapiens, UniProt P37231); assay: GAL4-hPPAR transactivation assay (PPARγ); assay type: cell-based; conditions: HEK293T cells, pFA-hPPARγ/GAL4 + pFR-SEAP reporter, about 48 hours
T2 construct: expressed in transfected cells; host or cells: HEK293T
T2 sequence (P37231 238-503 limits assumed): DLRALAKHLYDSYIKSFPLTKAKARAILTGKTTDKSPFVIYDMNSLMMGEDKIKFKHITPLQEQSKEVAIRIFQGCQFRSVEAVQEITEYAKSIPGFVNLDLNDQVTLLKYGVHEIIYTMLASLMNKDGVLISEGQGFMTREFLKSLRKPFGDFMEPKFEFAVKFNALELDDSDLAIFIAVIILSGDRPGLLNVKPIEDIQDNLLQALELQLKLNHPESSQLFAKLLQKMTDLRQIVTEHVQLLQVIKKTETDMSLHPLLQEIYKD
Text: as §1, §2, §3, §4

[2] = Determination of solubility in JP-fluid 1 / JP-fluid 2 (HPLC); assay type: physicochemical; conditions: thermodynamic from solid, 12 hours or more
Method: Determination of Solubility
One mg of a test compound was put into a test tube, and 1 ml of the first fluid for Japanese Pharmacopoeia Disintegration Test Method (synthetic gastric juice, pH 1.2: hereinafter referred to as JP-fluid 1) or the second fluid for Japanese Pharmacopoeia Disintegration Test Method (synthetic intestinal juice, pH 6.8: hereinafter referred to as JP-fluid 2) was added thereto and shaken, and then statically left at room temperature for 12 hours or more. After thus left, the sample was filtered through a 0.45-μm membrane filter, and the filtrate was suitably diluted with a mixture of DMSO-purified water (1/1) to prepare solutions for solubility determination.
Apart from the above, 1 mg of the test compound was put into a 20-mL messflask, and dissolved in a mixture of DMSO-purified water (1/1) to prepare a standard solution of 50 μg/mL. The standard solution was stepwise diluted to give serial dilutions, and using the dilutions, a calibration curve was formed.
The above-mentioned solutions for solubility determination with the JP-fluid 1 or the JP-fluid 2 were analyzed through HPLC, and based on the calibration curve formed in the above, the solubility of the test compound was computed.
The HPLC condition is as follows:
HPLC System for Alliance Assay (by Waters, USA),
Feed Pump: 2795 separation module,
UV Detector: 2996 photodiode array detector,
Column: ODS-type C18 column (3.5 μm, 3.0 mm ID×30 mm),
Column Temperature: 60° C.,
Mobile Phase A: pH 4.5, 10 mM acetate buffer,
Mobile Phase B: 50% acetic acid-acetonitrile mixture (1/999),
Gradient Condition: mobile phase A/B ratio, 95/5 to 10/90,
Sample Temperature: 25° C.,
Detection Wavelength: maximum absorption wavelength within a range of 220 to 420 nm.

[3] = db/db mice, as compared with pioglitazone; cited from earlier work
[4] = in vivo; cited from earlier work
[5] = patients associated with type II diabetes; cited from earlier work
[6] = fassgf or other biorelevant, synthetic intestinal juice, pH 6.8, room temperature, read-out: Solubility JP-fluid 2
[7] = simulated gastric fluid, synthetic gastric juice, pH 1.2, room temperature, read-out: Solubility JP-fluid 1

Row | SMILES | logD [1] | pEC50 (hPPARα) | pEC50 (hPPARγ) | solubility [2, 6] [µg/mL] | solubility [2, 7] [µg/mL] | body weight increase [3] | high-density lipoprotein (HDL) [4] | plasma triglyceride [4] | body weight increase or fluid accumulation [5]
1 | Cc1oc(-c2cccc(Br)c2)nc1CN(Cc1ccc(OC(C)(C)C(=O)O)cc1)Cc1nccs1 [Example 1-(2), 2-[4-[[[2-(3-Bromophenyl)-5-methyloxazol-4-ylmethyl]thiazol-2-ylmethylamino]methyl]phenoxy-2-methylpropionic acid hydrochloride] | 2.7 | 7.89 | 6.23 | > 1000 | 490 |  |  |  | 
2 | Cc1oc(-c2cccc(Br)c2)nc1CN(Cc1ccncc1)Cc1ccc(OC(C)(C)C(=O)O)cc1 [Example 4-(2), 2-[4-[[[2-(3-Bromophenyl)-5-methyloxazol-4-ylmethyl]pyridin-4-ylmethylamino]methyl]phenoxy]-2-methylpropionic acid] | 2.5 | 8.32 | 6.74 | < 3 | 930 (≈ 1690 µM) |  |  |  | 
3 | Cc1oc(-c2cccc(Br)c2)nc1CN(Cc1ccc(OC(C)(C)C(=O)O)cc1)Cc1cscn1 [Example 5-(2), 2-[4-[[[2-(3-Bromophenyl)-5-methyloxazol-4-ylmethyl]thiazol-4-ylmethylamino]methyl]phenoxy]-2-methylpropionic acid hydrochloride] | 2.3 | 8.59 | 6.66 | 680 | 520 |  |  |  | 
4 | Cc1cc(CN(Cc2ncco2)Cc2nc(-c3ccccc3)oc2C)cc(C)c1OC(C)(C)C(=O)O [Example 13-(2), 2-[2,6-Dimethyl-4-[[(5-methyl-2-phenyloxazol-4-ylmethyl)oxazol-2-ylmethylamino]methyl]phenoxy]-2-methylpropanoic acid] | 1.8 | 8.43 | 8.26 | > 870 | > 870 |  |  |  | 
5 | Cc1cc(CN(Cc2nccs2)Cc2nc(-c3ccccc3)oc2C)cc(C)c1OC(C)(C)C(=O)O [Example 16-(2), 2-[2,6-Dimethyl-4-[[(5-methyl-2-phenyloxazol-4-ylmethyl)thiazol-2-ylmethylamino]methyl]phenoxy]-2-methylpropanoic acid] | 2.6 | 8.62 | 8.06 | 480 (≈ 949 µM) | > 490 |  |  |  | 
6 | Cc1nnc(CN(Cc2cc(C)c(OC(C)(C)C(=O)O)c(C)c2)Cc2nc(-c3ccccc3)oc2C)o1 [Example 18-(2), 2-[2,6-Dimethyl-4-[[(5-methyl-[1,3,4]oxadiazol-2-ylmethyl)-(5-methyl-2-phenyloxazol-4-ylmethyl)amino]methyl]phenoxy]-2-methylpropanoic acid] | 1.1 | 8.54 | 7.48 | > 710 | > 710 |  |  |  | 
7 | Cc1noc(CN(Cc2cc(C)c(OC(C)(C)C(=O)O)c(C)c2)Cc2nc(-c3ccccc3)oc2C)n1 [Example 19-(3), 2-[2,6-Dimethyl-4-[[(3-methyl-[1,2,4]oxadiazol-5-ylmethyl)-(5-methyl-2-phenyloxazol-4-ylmethyl)amino]methyl]-phenoxy]-2-methylpropanoic acid] | 1.8 | 8.57 | 8.16 | > 710 | 650 (≈ 1290 µM) |  |  |  | 
8 | COc1ccc(CC2SC(=O)NC2=O)cc1C(=O)NCc1ccc(C(F)(F)F)cc1 (centres unmarked) [KRP-297] |  |  |  |  |  | significantly inhibits the body weight increase |  |  | 
9 | Cc1oc(-c2ccc(-c3ccccc3)cc2)nc1CCOc1ccc(OC(C)(C)C(=O)O)cc1 [LY465608] |  |  |  |  |  |  | dose-dependently increases | lowers | 
10 | CCc1ccc(CCOc2ccc(CC3SC(=O)NC3=O)cc2)nc1 (centres unmarked) [Pioglitazone, pioglitazone] |  |  |  |  |  |  |  |  | observed in some patients
11 | Cc1cc(CN(Cc2ccco2)Cc2sc(-c3ccc(C(F)(F)F)cc3)nc2C)ccc1OC(C)(C)C(=O)O [SKB-compd, reference compound] | 4.4 | 7.36 | 7.32 | 10 (≈ 17.9 µM) | 240 (≈ 430 µM) |  |  |  | 

Reference: patent US20070208021A1, “Phenoxyacetic Acid Derivatives and Drug Comprising The Same” (DAIICHI PHARMACEUTICAL CO., LTD., priority 2004, published 2007)
